Laboratory results as given in patent publication US11202821B2, “Glucose oxidase compositions” (VEGANUTRITECH LLP, priority 2016, dated 2021).
“And” between values parts separate entries of the source, which are not always exact repeats. Equal entries are not always repeated.

Legend:
[1] = Glucose tolerance test on healthy volunteers; type: in vivo, human
Excerpt: The data is as provided under table 21 and reflects that the sweetener compositions of the present invention are safer to use even for healthy individuals as compared to artificial sweeteners.
Observations of glucose tolerance test on healthy volunteers were made after the consumption of the sweetener composition containing glucose oxidase enzyme, as per the embodiment of the present invention and in comparison, to known artificial sweetener product having artificial sweetener sucralose and bulking agent dextrose monohydrate.

[2] = Effect on body weight and muscle mass in type 2 diabetic patients; type: in vivo, human; conditions: type 2 diabetic patient, dose 25 gms per day
Protocol: Six type 2 diabetic patients were randomly administered the Glucose oxidase containing sweetener composition as per the embodiment of the present invention for […], 5 patients were administered sugar and compositions containing natural sugar substitute (stevia based) based sweeteners, or artificial sweeteners based on Sucralose or Acem or compositions containing dietary fibres with saccharides, dietary fibres with sugar alcohols and dietary fibres with sugar alcohols and saccharides, the details of which are as set forth in the Table below. One patient was not given any composition. Before the onset of the study (week 0) and after 2 months, weight measurements were taken.

[3] = Calorific value by Bomb calorimeter; type: physicochemical
Protocol: Known sweetener compositions based on artificial sweeteners such as sucralose or Acesulfame K along with natural sugar substitute compositions including stevia, sugar, glucose and sucrose, were compared with the sweetener or the nutraceutical compositions containing glucose oxidase enzyme for their calorific values. The calorific values are determined using Bomb calorimeter.

buccal epithelial cells = test: Non invasive micronucleus assay for oxidative stress in diabetic individuals; type: in vivo, human; conditions: dose 40 gms (0.005 gms for the drugs)
Excerpt: Known pharmaceutical/nutraceutical compositions as well as other artificial sweeteners were compared to the pharmaceutical composition including the glucose oxidase enzyme of the invention for controlling oxidative stress in diabetic individuals.
Micronucleus is a small nucleus (also known as erratic or third nucleus), present in the cytoplasm of the cell. Formation of micronuclei indicates oxidative stress and genetic damage. The micronucleus assay using scraped buccal epithelial cells is an easy and non-invasive assay to estimate oxidative stress.
The results of the Non Invasive Micronucleus Assay, using buccal epithelial cells were tabulated as follows: […]

Question: With OC[C@H]1O[C@H](O[C@]2(CCl)O[C@H](CCl)[C@@H](O)[C@@H]2O)[C@H](O)[C@@H](O)[C@H]1Cl [Sucralose] as the molecule, how does the “Glycemic Response” value ([1]; conclusion in words) read?
Answer: respond almost in the same manner as that of Glucose

Question: What does the source list for OC[C@H]1O[C@@](CO)(O[C@H]2O[C@H](CO)[C@@H](O)[C@H](O)[C@H]2O)[C@@H](O)[C@@H]1O [Sugar]?
Answer: Initial Body weight ([2]; baseline (week 0)): 60 Kgs; Body weight (after two months) [2]: 62.5 Kgs; Muscle mass increase in % over three months [2]: No change; Calories/100 g [3]: 400 Calories/100 g; Oxidative stress Values (% of cells containing micronuclei) before administration (buccal epithelial cells; baseline): 5.0 % of cells containing micronuclei; Oxidative stress Values (% of cells containing micronuclei) one month after administration (buccal epithelial cells): 7 % of cells containing micronuclei

Question: Which Calories/100 g [3] does the source give for OC[C@H]1OC(O)[C@H](O)[C@@H](O)[C@@H]1O (stereo partly drawn) [Glucose] here?
Answer: 400 Calories/100 g

Question: With O.O=C[C@H](O)[C@@H](O)[C@H](O)[C@H](O)CO [Dextrose monohydrate] as the molecule, how does the “Blood Sugar After 2 hrs” value ([1]; 2 hrs after 75 gms in 200 ml of water, individual values, monohydrate) read?
Answer: 141 and 149 (3×) and 160 (3×) and 156 (2×) and 170 and 175 and 150 and 145 and 158 and 169 and 154 and 159 and 157 and 164 and 161

Question: What about the “Blood Sugar After 2 hrs, Average/20 respondents” value ([1]; after 2 hrs, 75 gms in 200 ml of water, average of 20 respondents) of the same molecule?
Answer: dents- 157.1

Question: What about the “Blood Sugar Initial” value ([1]; before drinking 75 gms in 200 ml of water, individual values, monohydrate) of the same molecule?
Answer: 80 and 79 and 97 and 96 and 100 (2×) and 105 (2×) and 104 (2×) and 86 and 89 and 98 and 102 (2×) and 87 and 95 and 99 and 103 and 93

Question: What about the “Blood Sugar Initial, Average/20 respondents” value ([1]; initial, average of 20 respondents) of the same molecule?
Answer: dents- 92.2
